Test system: human 3rd molar coronal dentin
Assay: Dentinal flow rate measurement (Pashley-like flow cell)
Details: repeated deposition
Description: Volumetric flow rates through cross-sections of human 3rd molar coronal dentin are measured before and after treatment using a flow cell apparatus (FIG. 6). Twenty two coronal dentin sections of human molars are obtained by cross sectional cutting with a diamond blade saw to a thickness between 0.80 and 1.00 mm. The sections resemble disks due to the circular nature of molars. The center of the disk is dentin 90 with a thin ring of enamel around the circumference (FIG. 6). The cut dentin disks are then placed in 6.0% citric acid for two minutes followed by sonication in water and subsequent rinsing to remove the smear layer created by the cutting process. The removal of the smear layer with citric acid is an effective and well known technique to produce open dentinal tubules representative of sensitive dentin found in-vivo. […]
Each dentin disk section is centered over the opening with flat washers 110 and bushing 120 on each side, making sure that the section spanned the opening with at least 1 mm overlap around the entire perimeter. […] The liquid velocity is recorded by timing the movement of the bubble within the supply line. […] Using a digital stop watch, elapsed times are recorded over 4 equidistant points along the ruler to establish the average rate the bubble travels and to ensure the velocity is constant. […]

O=C(O)C(=O)O [oxalate]
Flow rates through dentin: significantly reduce flow rates through dentin
